From ChEMBL document CHEMBL1131820, “Synthesis of pyrazolidinone antibacterial agents” (1999)
In brackets after ≈: the same amount, converted by molar mass. Activity calls are given as the source filed them. No cut-off for these calls is given here.

Key:
[1] = test system: Escherichia coli; assay: In vitro antibacterial activity against Escherichia coli; Active; assay type: functional, organism-based
[2] = test system: Micrococcus luteus; assay: microbe, parasite or virus in culture; assay type: functional
Description: Antibacterial activity against Micrococcus luteus; 128 to 512 ug/mL

[3] = test system: Staphylococcus aureus; assay: microbe, parasite or virus in culture; assay type: functional
[4] = test system: Staphylococcus aureus; assay: Compound was tested by in vitro qualitative microbiological testings with cephalothin against Staphylococcus aureus; positive synergy test; assay type: functional, organism-based
[5] = test system: Escherichia coli; assay: Compound was tested by in vitro qualitative microbiological testings with cephalothin against Escherichia coli; positive synergy test; assay type: functional, organism-based
[6] = test system: Escherichia coli; assay: Compound was tested by in vitro qualitative microbiological testings with cephalothin against Escherichia coli; No anti bacterial activity; assay type: functional, organism-based
[7] = test system: Staphylococcus aureus; assay: Compound was tested by in vitro qualitative microbiological testings with cephalothin against Staphylococcus aureus; No anti bacterial activity; assay type: functional, organism-based

| Compound | Activity [1] | MIC [2] | MIC [3] | Activity [4] | Activity [5] | Activity [6] | Activity [7] |
| --- | --- | --- | --- | --- | --- | --- | --- |
| CN1CC(NC(=O)Cc2ccccc2)C(=O)N1C(=O)Cc1ccccc1 (centres undefined) | Active | 128 µg/mL (≈ 364 µM) | 128 µg/mL (≈ 364 µM) | positive synergy test | – | – | – |
| CN1CC(NC(=O)Cc2ccccc2)C(=O)N1C(=O)c1ccccc1 (centres undefined) | Active | 128 µg/mL (≈ 379 µM) | 128 µg/mL (≈ 379 µM) | positive synergy test | – | – | – |
| CC(=O)N1C(=O)C(NC(=O)Cc2ccccc2)CN1C (centres undefined) | – | – | – | positive synergy test | positive synergy test | – | – |
| CN1CC(NC(=O)Cc2ccccc2)C(=O)N1 (centres undefined) | – | – | – | – | – | inactive | inactive |
| CN1CC(NC(=O)Cc2ccccc2)C(=O)N1C(=O)c1cccc(O)c1 (centres undefined) | – | 128 µg/mL (≈ 362 µM) | 128 µg/mL (≈ 362 µM) | – | – | – | – |
